Reference: patent US20210213104A1, “GLUCAGON AND GLP-1 CO-AGONISTS FOR THE TREATMENT OF CHRONIC KIDNEY DISEASE AND DIABETIC KIDNEY DISEASE IN TYPE 2 DIABETES” (MEDIMMUNE LIMITED, priority 2020, published 2021)

System: subjects with T2DM and renal impairment
Experiment: Phase 2a: continuous glucose monitoring (CGM)
Assay type: in vivo, human
Conditions: ITT; for Time in target range, LS Mean Change / Percentage of Time CGM Glucose Within Target Range (70-180 mg/dL), Mean / Percentage of Time CGM Glucose Within Target Range (70-180 mg/dL), Median / Time in target range, Change from Baseline (Days −8 to −2), Mean / Time in target range, Change from Baseline (Days −8 to −2), Median / Time in target range, Difference in LS Mean Change (vs Placebo): 100 μg Dose (Days 5 to 11)
Procedure: Cotadutide was titrated from 50 μg up to 300 μg and administered once daily by subcutaneous (SC) injection over 32 days.
Cotadutide was administered at 50 μg once daily for 4 days, followed by 100 μg daily for 7 days, 200 μg daily for 7 days, and 300 μg daily for 14 days (n=20). Placebo was administered one daily for 32 days (n=20). Cotadutide and placebo were administered in the morning. Dosing commenced following predose baseline vital signs, blood tests (including HbA1c), an electrocardiogram (ECG), body weight measurement, and bioimpedance spectroscopy (BIS). Subjects then returned for daily dosing or remained overnight locally until Day 5, and thereafter, had visits at weekly intervals until a maintenance dose of 300 μg was established. Thus, Cotadutide or placebo was administered at the study site by study personal for the first four doses and on site on Days 5, 12, 19, and 32. At all other times, subjects preformed dosing at home.
A Freestyle Libre® Pro CGM device was used to measure interstitial glucose levels. […] Data generated by CGM was used at visits to adjust insulin doses and other treatments.
The CGM sensor, which is a small plastic circular device of 35 mm diameter and 5 mm depth, was applied to the back of the upper arm. Subjects wore the CGM sensor continuously up until the time of a sensor change, which was to occur within 14 days, and they were advised that they could bathe and shower, and swim in up to 3 m depth for up to 30 minutes while wearing the CGM sensor. When the CGM sensor was removed, a new CGM sensor could be reapplied, ideally close to the original site, but with the subject's site preference taken into account. CGM sensors were single-use only.
If a subject was unable to tolerate wearing the CGM sensor for the entire duration of the study, the sensor was removed; but the subject was to remain in the study with or without continued CGM and could instead be instructed to monitor capillary plasma glucose measurements four times per day (before meals and before bedtime) and record these levels in the diary provided.
Subjects underwent continuous glucose monitoring (CGM) starting from Day −14 to Day 40 (±5 days), with sensor changes within 14-day intervals. CGM readings were used to analyze change in average CGM glucose and glucose AUC7 d, coefficient of variation as a marker of glycemic variability, and time spent in target glucose range and hypoglycemia, to enable comparison across different dose levels.

[1] = 50 μg (Days 1 to 4, not 7 days), baseline Days −8 to −2, ANCOVA
[2] = 100 μg (Days 5 to 11), baseline Days −8 to −2, ANCOVA
[3] = 100 μg (Days 5 to 11), baseline Days −8 to −2

Structure (SMILES): CCCCCCCCCCCCCCCC(=O)N[C@@H](CCC(=O)NCCCC[C@H](NC(=O)[C@H](CC(=O)O)NC(=O)[C@H](CO)NC(=O)[C@@H](NC(=O)[C@H](Cc1ccccc1)NC(=O)[C@@H](NC(=O)CNC(=O)[C@H](CCC(N)=O)NC(=O)[C@H](CO)NC(=O)[C@@H](N)Cc1c[nH]cn1)[C@@H](C)O)[C@@H](C)O)C(=O)N[C@@H](CO)C(=O)N[C@@H](CCC(=O)O)C(=O)N[C@@H](Cc1ccc(O)cc1)C(=O)N[C@@H](CC(C)C)C(=O)N[C@@H](CC(=O)O)C(=O)N[C@@H](CO)C(=O)N[C@@H](CCC(=O)O)C(=O)N[C@@H](CCCNC(=N)N)C(=O)N[C@@H](C)C(=O)N[C@@H](CCCNC(=N)N)C(=O)N[C@@H](CC(=O)O)C(=O)N[C@@H](Cc1ccccc1)C(=O)N[C@H](C(=O)N[C@@H](C)C(=O)N[C@@H](Cc1c[nH]c2ccccc12)C(=O)N[C@@H](CC(C)C)C(=O)N[C@@H](CCC(=O)O)C(=O)N[C@@H](C)C(=O)NCC(=O)NCC(=O)O)C(C)C)C(=O)O [Cotadutide]
- Percentage of time CGM Glucose in Clinically Significant Hypoglycemia (<54 mg/dL), Difference in LS Mean Change (vs Placebo) [1]: 5.28%
- Percentage of time CGM Glucose in Clinically Significant Hypoglycemia (<54 mg/dL), LS Mean Change [1]: 4.79%
- Average CGM Glucose Over 7-Day Periods, End of Dosing Period, Mean (100 μg (Days 5 to 11)): 127.599 mg/dL
- Average CGM Glucose Over 7-Day Periods, End of Dosing Period, Median (100 μg (Days 5 to 11)): 122.769 mg/dL
- Percentage of time CGM Glucose in Hyperglycemia (>180 mg/dL), End of Dosing Period, Mean (100 μg (Days 5 to 11)): 10.46%
- Percentage of time CGM Glucose in Hyperglycemia (>180 mg/dL), End of Dosing Period, Median (100 μg (Days 5 to 11)): 3.72%
- Average CGM Glucose Over 7-Day Periods, Difference in LS Mean Change (vs Placebo) [2]: -46.73 mg/dL
- Average CGM Glucose Over 7-Day Periods, LS Mean Change [2]: -36.35 mg/dL
- Percentage of time CGM Glucose in Clinically Significant Hypoglycemia (<54 mg/dL), Difference in LS Mean Change (vs Placebo) [2]: 2.25%
- Percentage of time CGM Glucose in Clinically Significant Hypoglycemia (<54 mg/dL), LS Mean Change [2]: 1.41%
- Percentage of time CGM Glucose in Hyperglycemia (>180 mg/dL), Difference in LS Mean Change (vs Placebo) [2]: −29.72%
- Percentage of time CGM Glucose in Hyperglycemia (>180 mg/dL), LS Mean Change [2]: −24.62%
- Percentage of time CGM Glucose in Hypoglycemia (<70 mg/dl), Difference in LS Mean Change (vs Placebo) [2]: 2.80%
- Percentage of time CGM Glucose in Hypoglycemia (<70 mg/dl), LS Mean Change [2]: 2.26%
- Average CGM Glucose Over 7-Day Periods, Change from Baseline to End of Dosing Period, Mean [3]: -35.628 mg/dL
- Average CGM Glucose Over 7-Day Periods, Change from Baseline to End of Dosing Period, Median [3]: -31.685 mg/dL
- Percentage of time CGM Glucose in Hyperglycemia (>180 mg/dL), Change from Baseline to End of Dosing Period, Mean [3]: −24.45%
- Percentage of time CGM Glucose in Hyperglycemia (>180 mg/dL), Change from Baseline to End of Dosing Period, Median [3]: −19.57%
- Time in target range, LS Mean Change (ANCOVA, Insulin Dose < 20 U/day): 26.25%
- Time in target range, LS Mean Change (ANCOVA, Insulin Dose ≥ 20 U/day): 3.59%
- Time in target range, LS Mean Change (ANCOVA, Total): 12.25%
- Percentage of Time CGM Glucose Within Target Range (70-180 mg/dL), Mean (Insulin Dose < 20 U/day): 94.44%
- Percentage of Time CGM Glucose Within Target Range (70-180 mg/dL), Median (Insulin Dose < 20 U/day): 97.79%
- Time in target range, Change from Baseline (Days −8 to −2), Mean (Insulin Dose < 20 U/day): 31.19%
- Time in target range, Change from Baseline (Days −8 to −2), Median (Insulin Dose < 20 U/day): 33.99%
- Time in target range, Difference in LS Mean Change (vs Placebo) (Insulin Dose < 20 U/day): 44.84%
- Percentage of Time CGM Glucose Within Target Range (70-180 mg/dL), Mean (Insulin Dose ≥ 20 U/day): 66.51%
- Percentage of Time CGM Glucose Within Target Range (70-180 mg/dL), Median (Insulin Dose ≥ 20 U/day): 77.04%
- Time in target range, Change from Baseline (Days −8 to −2), Mean (Insulin Dose ≥ 20 U/day): 2.53%
- Time in target range, Change from Baseline (Days −8 to −2), Median (Insulin Dose ≥ 20 U/day): 12.04%
- Time in target range, Difference in LS Mean Change (vs Placebo) (Insulin Dose ≥ 20 U/day): 8.32%
- Percentage of Time CGM Glucose Within Target Range (70-180 mg/dL), Mean (Total): 75.82%
- Percentage of Time CGM Glucose Within Target Range (70-180 mg/dL), Median (Total): 84.38%
- Time in target range, Change from Baseline (Days −8 to −2), Mean (Total): 11.58%
- Time in target range, Change from Baseline (Days −8 to −2), Median (Total): 14.94%
